From patent US20240199571A1, “THIOPHENE COMPOUND AND APPLICATION THEREOF” (MEDSHINE DISCOVERY INC., priority 2021, published 2024) come the findings set out here.

The target of series [1] is hERG potassium ion channels (Homo sapiens (Human), UniProt Q12809). The series can be described thus: Experiment 4: hERG potassium ion channel inhibition, automated patch clamp (Qpatch), CHO-hERG cells. Type of series: cell-based. The note with it: highest test concentration 40 μM. The method, then:
Experiment 4: hERG Potassium Ion Channel Inhibition Assay
Experimental purpose: To test the effects of the test examples on hERG potassium ion channels using an automated patch clamp method.
4.1.1 CHO-hERG cells were cultured in a 175 cm^2 culture flask. When the cell density grew from 60% to 80%, the culture medium was removed. The cells were washed once with 7 mL of PBS (Phosphate Buffered Saline), and then 3 mL of Detachin cell dissociation reagent was added thereto for digestion.
4.1.2 After the digestion was completed, 7 mL of culture medium was added thereto for neutralization, then the mixture was centrifuged, the supernatant was aspirated, and then 5 mL of culture medium was added thereto for resuspension to ensure a cell density of 2×10^6/mL to 5×10^6/ML.
The single-cell high-resistance sealing and whole-cell modeling formation processes were all automatically completed by the Qpatch instrument of the Shanghai Institute of Materia Medica, Chinese Academy of Sciences. After obtaining the whole-cell recording modeling, the cells were clamped at −80 mV, and before a 5-second +40 mV depolarizing stimulus was given, a 50-millisecond −50 mV prepulse was first given, then the voltage was repolarized to −50 mV and holden for 5 seconds, and finally returned to −80 mV. This voltage stimulus was applied every 15 seconds, recorded for 2 minutes, and then the extracellular fluid was recorded for 5 minutes, and then the administration process was initiated, with compound concentrations starting at the lowest test concentration. The voltage stimulus was given for 2.5 minutes for each test concentration, and after all concentrations had been continuously given, 3 μM the positive control compound, Cisapride, was given. At least 3 cells were tested per concentration (n≥3).
4.4.1 The compound stock solution was diluted with DMSO, and 20 μL of DMSO solution was added with 10 μL of the compound stock solution, and serially diluted 3-fold to 6 DMSO concentrations.
4.4.2 4 μL of 6 DMSO concentrations of compounds were taken respectively and added to 396 μL of extracellular fluid, and the mixture was diluted 100-fold to 6 intermediate concentrations, then 80 μL of 6 intermediate concentrations of compounds was taken and added to 320 μL of extracellular fluid, and the mixture was diluted 5-fold to the final test concentration.
4.4.3 The highest test concentration was 40 μM, and the concentrations were respectively 40, 13.3, 4.4, 1.48, 0.494, and 0.165 μM for a total of six concentrations.
4.4.5 The preparation of the compound was completed by the Bravo instrument throughout the dilution process.
Experimental data were analyzed by GraphPad Prism 5.0 software.
Background: hERG is a cardiac potassium channel; its block is linked to QT prolongation.

The target of series [2] is T1, human LSD1 (Homo sapiens (Human), UniProt O60341). The experiment in a line: Experiment 1B: in vitro LSD1 enzyme activity, enzyme-coupled fluorescence (HRP/Amplex Red), H3(1-21)K4me2 peptide 10 μM (Reaction Biology). Type of series: biochemical. Particulars: histone H3(1-21)K4me2 peptide 10 μM. The method, boiled down:
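Human LSD1 with 10 μM histone H3(1-21)K4me2 peptide; enzyme and substrate incubated 30 min before compound addition started the reaction. H2O2 detected via HRP/Amplex Red fluorescence (Ex/Em 535/590). IC50 from 10-point 3-fold dilutions starting at 10 μM.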

For the next series, the system named is NCI-H1417 cells. The experiment in a line: Experiment 2: inhibition of NCI-H1417 cell proliferation (CellTiter-Glo, 10 days). Particulars: Homo sapiens, 240 h, 10 days incubation. In kind it is cell-based. The method, boiled down:
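Cells at 1000 per well exposed to 10-point 3-fold dilutions from 10 μM top concentration for 10 days. Viability by CellTiter-Glo luminescence; inhibition normalized to max/min controls, IC50 from four-parameter fit.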
On the technique in general: ATP-based viability assays read luminescence as a measure of living cells.

For series [3], the system named is human small cell lung cancer NCI-H1417 cell subcutaneous xenograft tumor. The series can be described thus: Experiment 5: in vivo pharmacodynamic study, NCI-H1417 subcutaneous xenograft tumor in CB17-SCID mice. Particulars: 10 mg/kg, p.o.; for Mean tumor volume ± SEM (mm^3) (Day 28): day 28 after administration; for TGI (%): tumor volume at day 28. From the text: Experiment 5: In Vivo Pharmacodynamic Study of Compounds on CB17-SCID Mouse Model of Human Small Cell Lung Cancer NCI-H1417 Cell Subcutaneous Xenograft Tumor
The purpose of this experiment was to evaluate the in vivo efficacy of the compounds of the present disclosure on CB17-SCID mouse model of human small cell lung cancer NCI-H1417 cell subcutaneous xenograft tumor.
5.2 Experimental Animals: • Species: mice • Strain: CB17-SCID mice • Week age and weight: 6-8 weeks old, 18 to 22 grams • Gender: Female • Supplier: Beijing Vital River Laboratory Animal Technology Co., Ltd.
Human lung cancer cells NCI-H1417 were cultured in vitro in suspension in RPMI 1640 medium with 10% fetal bovine serum, 100 U/mL penicillin, and 100 μg/mL streptomycin at 37° C. in a 5% CO2 cell culture incubator. Routine digestion and passage treatment were performed twice a week. When the number of cells reached the required number, the cells were counted and resuspended in PBS at a density of 10×10^6 cells/200 μL.
0.2 mL of NCI-H1417 tumor cells (containing 10×10^6 cells) suspension (PBS: matrix gel=1:1) was subcutaneously inoculated on the right back of mice, and in pharmacodynamic experiments, on the 16th day after cell inoculation, when the average tumor volume reached 86 mm^3, the subjects were randomly grouped and the administration started.
The experimental vehicle was 5% dimethyl sulfoxide/95% (10% Solutol) solution. Preparation method: 3.8 mL of […] was taken and added to 34.2 mL of double-distilled water, 2 mL of dimethyl sulfoxide was added thereto, and the mixture was mixed well. The test substance was dissolved with the vehicle, prepared as a homogeneous solution of a certain concentration, and stored at 4° C.
The experimental indicator was to examine whether tumor growth was inhibited, delayed, or cured. The tumor diameter was measured twice a week using vernier calipers. The calculation formula of tumor volume is V=0.5a×b^2, wherein a and b represent the long and short diameters of the tumor respectively.
The tumor inhibitory efficacy of compounds was evaluated by TGI (%). TGI (%) reflects the tumor growth inhibition rate. Calculation of TGI (%): TGI (%)=[1−(Average tumor volume at the end of administration in a certain treatment group−Average tumor volume at the beginning of administration in this treatment group)/(Average tumor volume at the end of treatment in the vehicle control group−Average tumor volume at the beginning of treatment in the vehicle control group)]×100%.

For series [4], the target named is T1, human LSD1. The experiment in a line: Experiment 1A: in vitro LSD1 enzyme activity, enzyme-coupled fluorescence (HRP/Amplex Red), H3K4me peptide 20 μM (Wuhan Heyan). In kind it is biochemical. Particulars: histone H3K4me peptide 20 μM. How it is done:
Experiment 1A: Evaluation of Enzyme Activity
Testing unit: Wuhan Heyan Biomedical Technology Co., Ltd.
The purpose of the assay was to test the in vitro inhibitory activity of the compounds against LSD1. The enzyme used in the assay was human LSD1, and the standard substrate was histone H3K4me peptide (20 μM). The activity of the compounds was determined by the enzyme-coupling fluorescent method by the combined detection of H2O2 generated after the reaction of LSD1 by horseradish peroxidase (HRP) and the fluorescent reagent Amplex Red. Starting from 10 μM, the compounds were 3-fold diluted to detect the IC50 values of the compounds at 10 concentrations. The enzyme and substrate were incubated for 30 minutes before the compound was added to the substrate to start the reaction. Fluorescence detector: EnVision, excitation wavelength: Ex/Em=530/590 nM.

Series [5] can be described thus: Experiment 3: pharmacokinetic evaluation in CD-1 mice (IV and oral). Type of series: in vivo. The note with it: mouse, plasma; for clearance / half-life / Vd: IV 1 mg/kg; for clearance: read-out: Clearance rate CL; for half-life: read-out: Half life T1/2 (IV, h) (converted); for Vd: read-out: Volume of distribution at steady state Vdss; for bioavailability: PO 2 mg/kg vs IV 1 mg/kg, read-out: Bioavailability F (%); for AUC(0-t): PO 2 mg/kg, read-out: Area under drug-time curve AUC0-last PO; for Cmax: single dose, oral 2 mg/kg, read-out: Peak concentration Cmax. The method, then: Experiment 3: Pharmacokinetic Evaluation of Compounds
Experimental purpose: To test the pharmacokinetics of compounds in CD-1 mice in vivo
CD-1 mice (male/female, 7 to 9 weeks old, Shanghai SLAC)
The pharmacokinetic characteristics of the compounds in rodents after intravenous injection and oral administration were tested according to the standard protocol. In the experiment, the candidate compound was formulated into clear solutions, and a single intravenous injection and oral administration were given to mice. The vehicle for intravenous injection and oral administration was a mixed vehicle composed of 10% dimethyl sulfoxide and 90% hydroxypropyl β-cyclodextrin with a content of 10%. In this project, four male/female CD-1 mice were used. Two mice were injected intravenously at a dose of 1 mg/kg, and plasma samples were collected at 0.083, 0.25, 0.5, 1, 2, 4, 8, and 24 hours after administration; the other two were administered orally by gavage at a dose of 2 mg/kg, and plasma samples were collected at 0.25, 0.5, 1, 2, 4, 8, and 24 hours after administration. The samples were centrifuged at 3200 g for 10 minutes at 4° C., and plasma samples were obtained by separating the supernatant. A methanol solution containing internal standard with 20 times the volume of the sample was added thereto to precipitate the protein, and the mixture was centrifuged at 12000 g for 15 minutes at 4° C. 50 μL of the supernatant was taken and transferred to a 96-well plate and centrifuged again. The supernatant was taken for sampling. The plasma concentration was quantitatively analyzed using LC-MS/MS analysis method, and pharmacokinetic parameters, such as peak concentration (Cmax), clearance rate (CL), half-life (T1/2), volume of distribution at steady state (Vdss), area under drug-time curve (AUC0-last), bioavailability (F).

A word on the IC50: it is the concentration that inhibits the measured activity by half. Read a high IC50 as lower potency. In general, bioavailability refers to dose-corrected exposure relative to a reference, in per cent.

Where a name gives a salt, the structure may show the parent alone. Read-outs that look alike come from different tables or passages of the source.

Sequence of hERG potassium ion channels (Q12809 whole entry): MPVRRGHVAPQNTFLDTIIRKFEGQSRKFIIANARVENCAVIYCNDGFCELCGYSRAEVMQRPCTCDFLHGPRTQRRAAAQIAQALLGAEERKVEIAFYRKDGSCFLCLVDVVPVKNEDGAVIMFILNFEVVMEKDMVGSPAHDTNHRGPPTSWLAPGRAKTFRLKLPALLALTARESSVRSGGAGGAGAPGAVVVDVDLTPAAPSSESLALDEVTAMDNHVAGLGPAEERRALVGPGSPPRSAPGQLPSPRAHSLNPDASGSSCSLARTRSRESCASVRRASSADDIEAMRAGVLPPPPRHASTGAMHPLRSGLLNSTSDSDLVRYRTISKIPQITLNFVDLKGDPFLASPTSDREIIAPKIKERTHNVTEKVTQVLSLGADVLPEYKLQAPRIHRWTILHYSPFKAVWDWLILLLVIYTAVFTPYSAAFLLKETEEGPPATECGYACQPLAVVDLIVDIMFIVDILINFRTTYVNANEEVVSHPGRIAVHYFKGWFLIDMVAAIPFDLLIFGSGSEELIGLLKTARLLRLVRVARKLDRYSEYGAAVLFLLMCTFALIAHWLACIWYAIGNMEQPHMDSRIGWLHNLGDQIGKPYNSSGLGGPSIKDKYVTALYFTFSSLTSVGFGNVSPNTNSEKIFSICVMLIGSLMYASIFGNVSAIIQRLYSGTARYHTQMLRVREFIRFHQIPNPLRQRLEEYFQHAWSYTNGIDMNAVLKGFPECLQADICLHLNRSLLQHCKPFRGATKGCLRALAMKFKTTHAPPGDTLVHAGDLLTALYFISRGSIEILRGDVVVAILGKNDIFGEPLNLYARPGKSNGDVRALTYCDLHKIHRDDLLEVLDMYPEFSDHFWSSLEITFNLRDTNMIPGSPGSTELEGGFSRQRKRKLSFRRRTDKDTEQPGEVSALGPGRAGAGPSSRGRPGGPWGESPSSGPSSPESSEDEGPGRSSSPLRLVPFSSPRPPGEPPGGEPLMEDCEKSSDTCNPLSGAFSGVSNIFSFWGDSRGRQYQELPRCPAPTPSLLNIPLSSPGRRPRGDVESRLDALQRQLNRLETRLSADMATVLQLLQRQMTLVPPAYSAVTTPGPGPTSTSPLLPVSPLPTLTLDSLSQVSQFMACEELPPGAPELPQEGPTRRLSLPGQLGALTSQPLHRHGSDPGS

Regarding `CN[C@@H]1CCCN(C(=O)c2cc(-c3ccc(C#N)c(F)c3)c(-c3ccc4c(c3)nnn4CC(C)(C)O)s2)C1` [Hydrochloride of compound 121], the IC50 in series [1] stood at 20.5 µM; against human LSD1 [2], 0.0143 µM; with NCI-H1417 cells it was 0.0077 µM. Also, the “Mean tumor volume ± SEM (mm^3) (Day 28)” value in series [3] (QD) is listed as 75 ± 4 mm^3. Besides, in series [3] (QD), the “TGI (%)” value was 103.19%.

As for `COc1ccc(-c2sc(C(=O)N3CCC4(CCNC4)CC3)cc2-c2ccc(C#N)c(F)c2)cc1F` [Hydrochloride of compound 10], the IC50 in the series with NCI-H1417 cells turned out to be 0.0224 µM; on human LSD1 [4], 0.192 µM.

As to `COc1ccc(-c2sc(C(=O)NC3CC4CCC3N4)cc2-c2ccc(C#N)c(F)c2)cc1F` (stereo not shown) [Hydrochloride of compound 15], the IC50 on human LSD1 [4] was determined as 0.31 µM. This counts as sub-micromolar.

For `COc1ccc(-c2sc(C(=O)N3CC4CNCC4C3)cc2-c2ccc(C#N)c(F)c2)cc1F` (stereo not shown) [Hydrochloride of compound 9], the results for the IC50 in the series on NCI-H1417 cells and against human LSD1 [4] were 0.0158 µM and 0.118 µM, respectively.

`COc1ccc(-c2sc(C(=O)N3CC[C@@H](N)C3)cc2-c2ccc(C#N)c(F)c2)cc1F` [Hydrochloride of compound 12] gave a half-inhibitory concentration (IC50) against human LSD1 [4] of 0.393 µM.

At human LSD1 [4], `COc1ccc(-c2sc(C(=O)N3CCNCC3)cc2-c2ccc(C#N)c(F)c2)cc1F` [Hydrochloride of compound 5] came in with an IC50 of 0.345 µM.

Consider `CC(C)(CO)n1nnc2cc(-c3sc(C(=O)N4CCC[C@@H](N)C4)cc3-c3ccc(C#N)c(F)c3)c(F)c(F)c21` [Hydrochloride of compound 99], for which, in series [5] (male CD-1 mice), the clearance is 42 mL/min/kg, the half-life is 2.48 h, the Vd was determined as 7.23 L/kg and the bioavailability was found to be 47.7%. Further, in series [5] (male CD-1 mice), the AUC(0-t) stood at 0.625 µM·h and the Cmax was 145 nM. In series [1], this compound gave an IC50 of 27 µM. The compound further returned an IC50 against human LSD1 [2] of 0.0174 µM. In the series with NCI-H1417 cells, the IC50 worked out at 0.00426 µM.

`COc1ccc(-c2sc(C(=O)N3CCC(N)CC3)cc2-c2ccc(C#N)c(F)c2)cc1F` [Hydrochloride of compound 4]: the IC50 with NCI-H1417 cells is 0.0301 µM; against human LSD1 [4] it was 0.11 µM.

As for `Cn1cc2cc(-c3sc(C(=O)N4CCC[C@@H](N)C4)cc3-c3ccc(C#N)c(F)c3)ccc2n1` [Hydrochloride of compound 36], in series [5] (female CD-1 mice), the clearance was 37.3 mL/min/kg, the half-life was 2.01 h, the Vd is 4.71 L/kg and the bioavailability came to 49.6%. In addition, in series [5] (female CD-1 mice), the AUC(0-t) was 0.971 µM·h and the Cmax was determined as 224 nM. In series [5] (male CD-1 mice), the clearance is 31.5 mL/min/kg, the half-life was 2.1 h, the Vd is 4.47 L/kg and the bioavailability came out at 33.9%. In addition, in series [5] (male CD-1 mice), the AUC(0-t) was found to be 0.742 µM·h and the Cmax was found to be 148 nM. Besides, half-maximal inhibition against human LSD1 [2] (IC50) was put at 0.00344 µM. In the series on NCI-H1417 cells, this compound showed an IC50 of 0.00117 µM. In series [3] (BID), the “Mean tumor volume ± SEM (mm^3) (Day 28)” value amounted to 53 ± 3 mm^3 and the “TGI (%)” value was found to be 109.13%. In series [3] (QD), the “Mean tumor volume ± SEM (mm^3) (Day 28)” value is 87 ± 11 mm^3 and the “TGI (%)” value is on record as 99.65%.

Regarding `COc1ccc(-c2sc(C(=O)N3CCCC[C@@H](N)C3)cc2-c2ccc(C#N)c(F)c2)cc1F` [Hydrochloride of compound 8], the figures for the concentration for half-maximal inhibition (IC50) with NCI-H1417 cells and against human LSD1 [4] were 0.00873 µM and 0.12 µM, respectively.
